Tested on: buccal mucosal membrane
Test: Needle stab after applying the surface anesthetic agent to the buccal mucosal membrane: time for the painless effect to be exerted
Assay type: in vivo
Settings: 200 mg applied with a cotton swab to the buccal mucosal membrane, then a needle stabbed
Experimental: Various surface anesthetic agents mentioned above were applied to the buccal mucosal membrane, and then a needle was stabbed, and the time for the painless effect to be exerted and the time for the pain to start again were measured.
(1) As a sample of tetracaine alone, 200 mg (12 mg tetracaine) COPALON was attached to a cotton swab, and applied to the buccal mucosal membrane.
(2) As a sample of lidocaine alone, 200 mg Xylocaine jelly (4 mg lidocaine) was attached to a cotton swab, and applied to the buccal mucosal membrane.
(3) As a sample of a combination use of tetracaine and lidocaine, various mixtures of tetracaine and lidocaine in 92:8, 82:18, 67:33 and 43:57 mass ratios were prepared by varying the blending ratio of COPALON and Xylocaine jelly to 80:20, 60:40, 40:60 and 20:80. 200 mg of each of the prepared mixtures was attached to a cotton swab, and applied to the buccal mucosal membrane. […]
Various surface anesthetic agents containing tetracaine and/or lidocaine mentioned above were applied to the buccal mucosal membrane, and then a needle was stabbed, and the time for the painless effect to be exerted and the time for the pain to start again were measured.

SMILES: CCN(CC)CC(=O)Nc1c(C)cccc1C [Comparative Example 1-2, 2-(diethylamino)-N-(2,6-dimethylphenyl) acetamide]
- time for the painless effect to be exerted after the application: 5 min

Reference: US9107876B2, “Surface anesthetic agent” (YAMAGUCHI UNIVERSITY, priority 2009, dated 2015)
